Tests used:
[1] = tested on: breast and colon cancer cells; assay: effect on cell morphology; type: cell-based, human
Description: The photographs were taken on Day 4, ×160.
Furthermore, the synergistic growth inhibitory effect of C-6 and C-8 analogue combinations was also reflected in the change in the cell morphology.

[2] = tested on: R^II cAMP receptor protein (MDA-MB-231); assay: photoaffinity labelling of R^II cAMP receptor protein, MDA-MB-231; type: cell-based, human; settings: 10 microM, 3 days; relative to control R^I
Procedure: (§1) M is marker proteins of known molecular weight.
(§2) The incubations were carried out at 23° C. for 60 minutes in 96-well immunoplates. The reaction mixtures were then irradiated for 30 seconds at 254 nm, placing a Mineralite UVS-11 hand lamp directly onto the plate. The samples were mixed with 25 microliters of 3× sample buffer (3% SDS, 15% beta-mercaptoethanol, 30 mM Tris, 30% glycerol, 1% bromophenol blue saturated solution), boiled for 3 minutes, and centrifuged at 700×g for five minutes. The samples containing 50-100 micrograms of protein were subjected to 0.05% SDS-12% PAGE. The gels were fixed, dried, and exposed to X-ray films overnight. The protein concentrations were determined by the method of Lowry et al., (J. Biol. Chem. 193: 265-275, 1951) with bovine serum albumin as standard.
(§3) The levels of the receptor proteins are expressed relative to the R^I level in the untreated control cells of MDA-MB-231 and LS-174T, which are each set equal to 1.0 O.D.; the scale was expanded to differentiate the lower intensity bands.

DMBA-1 = assay: growth of transplantable DMBA-1 rat mammary carcinoma; type: in vivo; settings: pellet with 10 mg cAMP analogue, day 7
Procedure: DMBA-1, a variant of primary hormonedependent DMBA tumor,
hormoneindependent and transplantable.
(§4) 8Cl-cAMP and DBcAMP were given as a 20mg pellet consisting of 10 mg of […]

LS-174T [3] = assay: growth of LS-174T cells; type: cell-based; settings: Homo sapiens, LS174T, 72 h; 10 microM, 3 days
Procedure: as §1
(§5) All breast cancer cell lines were grown in IMEM supplemented with 10% fetal bovine serum, 20 mM HEPES, penicillin-streptomycin, and extra glutamine. Colon carcinoma cell lines were grown in EMEM supplemented with 10% FBS, EMEM, NEAA, HEPES 20 mM, extra glutamine, and penicillin-streptomycin. The cells were grown at 37° C. in humidified incubators in an atmosphere of 5% CO2.
For cell growth experiments, 2-3×10^5 cells/60 mm dish were seeded, and 24 hours later (Day 0), the medium was removed, and fresh medium and the additives were added then and every 48 hours thereafter The compounds of the present invention were added using 100× concentrated stock solutions. At desired times, cell counts in duplicate were performed on a Coulter counter after harvesting the cells with gentle trypsinization.

[4] = tested on: R^I cAMP receptor protein (MDA-MB-231); assay: photoaffinity labelling of R^I cAMP receptor protein, MDA-MB-231; type: cell-based, human; settings: 10 microM, 3 days; control 1.0
Procedure: as §1, §2, §3

[5] = tested on: R^I and R^II cAMP receptor proteins in breast (MDA-MB-231) and colon (LS-174T) cancer cells; assay: R^I and R^II cAMP receptor protein levels in breast and colon cancer lines (FIG. 6); type: cell-based, human
Procedure: as §1, §2

R^II = settings: cited from earlier work
[6] = tested on: p21 ras protein (MCF-7 cells); assay: Western blotting of p21 ras protein in MCF-7 cells; type: cell-based, human; settings: 10 microM, three days
Procedure: Western blotting of p21 protein was performed as described below. […] V is cell lysate from Ha-MuSV-transformed NIH3T3 clone 13-3B-4. M, marker proteins of known molecular weight.
Cellular proteins present in cell extracts were separated by 12% SDS-PAGE and transferred to nitrocellulose sheets in transfer buffer (25 mM Tris, 192 mM glycine, 20% methanol, pH 7.4). Nitrocellulose sheets were washed and first incubated with 3% bovine serum albumin in NTE-NP40 (50 mM Tris-HCl, pH 7.5, 150 mM NaCl, 2 mM EDTA, 0.1% Nonidet P-40) for three hours at 37° C. and then sequentially incubated with medium containing p21 monoclonal antiserum Y13-259 directed against the Ha-MuSV-encoded p21 for sixteen hours at 4° C., rabbit anti-rat IgG for 2.5 hours in an ice-water bath, and 5×10^5 cpm/ml ^125 I-protein A for one hour in an ice-water bath. The nitrocellulose sheets were air-dried and exposed to Kodak XAR film for 12-36 hours at -20° C. Comparison of the resulting autoradiograms with others in which normal rat serum was substituted for p21 monoclonal antibody permitted identification of p21. To provide a reference p21, cell lysates were prepared from NIH 3T3 clone 13-3B-4 that had been transfected with Ha-MuSV DNA.
The levels of p21 protein are expressed relative to the p21 level in the untreated control cells, which is set equal to 1.0 O.D.

[7] = tested on: mammary tumor inductions by DMBA; assay: DMBA mammary tumor induction (FIG. 8); type: in vivo; settings: 10 mg pellet one day before DMBA
NMU-2 = assay: growth of metastatic NMU-2 rat mammary carcinoma; type: in vivo; settings: pellet with 10 mg cAMP analogue, day 7
Procedure: NMU2, a variant of primary hormoneresponsive NMU tumor,
hormoneindependent, transplantable, and metastatic.
as §4

LS-174T [8] = assay: growth of LS-174T human colon carcinoma in nude mice; type: in vivo; settings: nude mouse, pellet with 10 mg cAMP analogue, day 7
Procedure: LS174T, human colon cancer line was s.c. grown in nude mice and a solid
tumor, transplantable, was obtained.
as §4

[9] = tested on: HT-29 colon cancer cell line
[10] = tested on: R^I cAMP receptor protein (Molt-4); assay: R^I cAMP receptor protein in Molt-4 leukemic cells; type: cell-based, human; settings: 5 micromol/L, three days
Description: M marker proteins of known molecular weight. […] The resulting supernatants were used as cell lysates. […] ND=nondetectable.

[11] = tested on: LS-174T colon cancer line; assay: growth inhibition and release from inhibition, LS-174T (FIG. 3); type: cell-based, human
Procedure: 1×10^5 cells/60 mm dish were seeded, and 24 hours later (Day 0), the medium was removed and fresh medium and additives were added then and every 48 hours thereafter. […] The triplicate cell count for each experimental point never varied by more than 10%.
as §5

[12] = tested on: R^I cAMP receptor protein (LS-174T); assay: photoaffinity labelling of R^I cAMP receptor protein, LS-174T; type: cell-based, human; settings: 10 microM, 3 days; control 1.0
Procedure: as §1, §2, §3

R^I receptor = settings: cited from earlier work
[13] = tested on: R^II cAMP receptor protein (LS-174T); assay: photoaffinity labelling of R^II cAMP receptor protein, LS-174T; type: cell-based, human; settings: 10 microM, 3 days; relative to control R^I
Procedure: as §1, §2, §3

## Nc1ncnc2c1nc(Cl)n2[C@@H]1O[C@@H]2COP(=O)(O)O[C@H]2[C@H]1O [8-Cl-cAMP]
[1]; 1 microM alone, four days
  morphological change: did not induce a change in the cell morphology
[1]; 50 microM, four to five days
  morphological change: characteristic morphological change
[2]
  R^II relative level: 0.15 ± 0.01
DMBA-1
  Change in mean tumor volume: 1.60 cm^3
LS-174T [3]
  activity at 10 µM: 30%
[4]
  R^I relative level: 0.25 ± 0.03
[5]; densitometry
  increase in the ratio of R^II to R^I: two- to three-fold increase
[5]; three days, 10 microM
  48,000 R^I receptor protein, in words: concomitant decrease
  52,000 MW (R^II) receptor protein, in words: increased appreciably
R^II
  site selectivity of binding, R^II: selectively binds to site 1
[6]
  p21 level, in words: markedly decreased level of p21
[7]
  reduction in the total number of tumors produced: 70%
NMU-2
  Change in mean tumor volume: 1.10 cm^3
LS-174T [8]
  Change in mean tumor volume: 0.58 cm^3
LS-174T [8]; none = 100
  Change in mean tumor volume (%): 60%
[9]
  8-Cl-adenosine in cell extracts: no 8-Cl-adenosine was present
  8-Cl-adenosine in cell extracts or medium: 8-Cl-adenosine was not detected
  8-Cl-adenosine in medium: no 8-Cl-adenosine was present
  cell penetration of intact compound: penetrated the cell
[10]
  R^I receptor protein, in words: markedly decreased
[11]
  mechanism of growth inhibition / cell viability: decrease in the rate of replication without affecting cell viability
[11]; 8-Cl-cAMP 10 microM or 8-Cl-adenosine 5 microM
  cell growth during treatment: marked reduction in cell growth
[11]; after removal of additives
  growth after cessation of treatment: resumed growth almost immediately
[12]
  R^I relative level: 0.20 ± 0.02
R^I receptor
  site selectivity of binding, R^I: binds to site 2
[13]
  R^II relative level: 0.25 ± 0.02

Reference: patent US5902794A (priority 1997, dated 1999)
